Laboratory results published in US12116388B2, “Amylin receptor agonists” (Novo Nordisk A/S, priority 2022, dated 2024).
Starred links: 1 amine or outer side, 2 acyl side, 3 side chain; linkers in the order of their positions; H or OH if unused. Residues, ends and D or L forms follow the SMILES beside them. *: point of attachment. C18 diacid = O=C(O)CCCCCCCCCCCCCCCCC(=O)*; γGlu = O=C(O)[C@H](CCC(=O)[*:2])N[*:1]

Experiment: Oral pharmacokinetic profiles in Beagle dogs (SNAC tablets)
Type: in vivo
Conditions: oral tablet: 3 mg compound, 300 mg SNAC, 7.7 mg magnesium stearate; for half-life: male, dog, plasma, read-out: T½ (converted)
Summary of the method: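 Male Beagle dogs, fasted overnight, received an oral immediate-release tablet of 3 mg compound with 300 mg SNAC, 10 min after ~3.2 nmol/kg subcutaneous glucagon. EDTA plasma sampled up to 288 h post-dose; concentrations measured by ethanol protein precipitation and LC-MS for pharmacokinetic parameters.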

| Structure (SMILES) | half-life [h] | AUC/D [kg·h/L] | Cmax/D [kg/L] |
| --- | --- | --- | --- |
| CC[C@H](C)[C@H](NC(=O)[C@@H]1CCCN1C(=O)CNC(=O)[C@H](Cc1ccccc1)NC(=O)[C@H](Cc1c[nH]cn1)NC(=O)[C@H](Cc1c[nH]cn1)NC(=O)[C@H](CC(C)C)NC(=O)[C@H](Cc1ccccc1)NC(=O)[C@H](CCC(=O)O)NC(=O)[C@H](C)NC(=O)[C@H](CC(C)C)NC(=O)[C@H](CCCNC(=N)N)NC(=O)[C@H](C)NC(=O)[C@@H](NC(=O)[C@H](CCC(N)=O)NC(=O)[C@H](C)NC(=O)[C@@H](NC(=O)[C@H](CO)NC(=O)[C@H](CC(C)C)NC(=O)[C@H](Cc1c[nH]cn1)NC(=O)[C@H](CO)NC(=O)[C@H](C)NC(=O)CC[C@H](NC(=O)CC[C@H](NC(=O)CCCCCCCCCCCCCCCCC(=O)O)C(=O)O)C(=O)O)[C@@H](C)O)[C@@H](C)O)C(=O)N[C@@H](CC(C)C)C(=O)N1CCC[C@H]1C(=O)N1CCC[C@H]1C(=O)N[C@H](C(=O)N[C@@H](CC(=O)O)C(=O)N[C@H](C(=O)NCC(=O)N[C@@H](CO)C(=O)N[C@@H](CCC(=O)O)C(=O)N[C@H](C(=O)N1CCC[C@H]1C(N)=O)[C@@H](C)O)C(C)C)[C@@H](C)O [Compound 17, N^1-[(4S)-4-carboxy-4-[[(4S)-4-carboxy-4-(17-carboxyheptadecanoylamino)butanoyl]amino]butanoyl]-[Ala1,Ser2,His3,Leu4,Ser5,Ala7,Gln8,Ala10,Glu14,His17,Pro25,Pro28,Pro29,Asp31,Glu35,Pro37],des-(19-22)-human amylin] ({C18 diacid-γGlu-γGlu}-ASHLSTAQTARLAEFLHHFGPILPPTDVGSETP-NH2) | 94.8 | 19.7 | 0.28 |
| CC[C@H](C)[C@H](NC(=O)[C@@H]1CCCN1C(=O)CNC(=O)[C@H](Cc1ccccc1)NC(=O)[C@H](CC(N)=O)NC(=O)[C@H](CC(=O)O)NC(=O)[C@H](CO)NC(=O)[C@H](CO)NC(=O)[C@H](Cc1c[nH]cn1)NC(=O)[C@H](Cc1c[nH]cn1)NC(=O)[C@H](CC(C)C)NC(=O)[C@H](Cc1ccccc1)NC(=O)[C@H](CCC(=O)O)NC(=O)[C@H](C)NC(=O)[C@H](CC(C)C)NC(=O)[C@H](CCCNC(=N)N)NC(=O)[C@H](C)NC(=O)[C@@H](NC(=O)[C@H](CCC(N)=O)NC(=O)[C@H](C)NC(=O)[C@@H](NC(=O)[C@H](CO)NC(=O)[C@H](CC(C)C)NC(=O)[C@H](CCC(N)=O)NC(=O)[C@H](CO)NC(=O)[C@H](C)NC(=O)CC[C@H](NC(=O)CCCCCCCCCCCCCCCCC(=O)O)C(=O)O)[C@@H](C)O)[C@@H](C)O)C(=O)N[C@@H](CC(C)C)C(=O)N1CCC[C@H]1C(=O)N1CCC[C@H]1C(=O)N[C@H](C(=O)N[C@@H](CC(=O)O)C(=O)N[C@H](C(=O)NCC(=O)N[C@@H](CO)C(=O)N[C@@H](CC(N)=O)C(=O)N[C@H](C(=O)N1CCC[C@H]1C(N)=O)[C@@H](C)O)C(C)C)[C@@H](C)O [Compound 22, N^1-[(4S)-4-carboxy-4-(17-carboxyheptadecanoylamino)butanoyl]-[Ala1,Ser2,Gln3,Leu4,Ser5,Ala7,Gln8,Ala10,Glu14,His17,Asp21,Pro25,Pro28,Pro29,Asp31,Pro37]-human amylin] ({C18 diacid-γGlu}-ASQLSTAQTARLAEFLHHSSDNFGPILPPTDVGSNTP-NH2) | 96.6 | 24.43 | 0.35 |
| CC[C@H](C)[C@H](NC(=O)[C@H](C)NC(=O)CNC(=O)[C@H](Cc1ccccc1)NC(=O)[C@@H]1CCCN1C(=O)[C@H](CC(=O)O)NC(=O)[C@H](CO)NC(=O)[C@H](CO)NC(=O)[C@H](Cc1c[nH]cn1)NC(=O)[C@H](Cc1c[nH]cn1)NC(=O)[C@H](CC(C)C)NC(=O)[C@H](Cc1ccccc1)NC(=O)[C@H](CCC(=O)O)NC(=O)[C@H](C)NC(=O)[C@H](CC(C)C)NC(=O)[C@H](CCCNC(=N)N)NC(=O)[C@H](CCC(N)=O)NC(=O)[C@@H](NC(=O)[C@H](CCC(N)=O)NC(=O)[C@H](C)NC(=O)[C@@H](NC(=O)[C@H](CO)NC(=O)[C@H](CC(C)C)NC(=O)[C@H](CCC(N)=O)NC(=O)[C@H](CO)NC(=O)[C@H](C)NC(=O)CC[C@H](NC(=O)CCCCCCCCCCCCCCCCC(=O)O)C(=O)O)[C@@H](C)O)[C@@H](C)O)C(=O)N1CCC[C@H]1C(=O)N[C@@H](CO)C(=O)N[C@@H](CO)C(=O)N[C@H](C(=O)N[C@@H](CC(=O)O)C(=O)N[C@H](C(=O)NCC(=O)N1CCC[C@H]1C(=O)N[C@@H](CC(=O)O)C(=O)N[C@H](C(=O)N1CCC[C@H]1C(N)=O)[C@@H](C)O)C(C)C)[C@@H](C)O [Compound 24] ({C18 diacid-γGlu}-ASQLSTAQTQRLAEFLHHSSDPFGAIPSSTDVGPDTP-NH2) | 120 | 31.21 | 0.36 |
| CC[C@H](C)[C@H](NC(=O)[C@H](C)NC(=O)CNC(=O)[C@H](Cc1ccccc1)NC(=O)[C@@H]1CCCN1C(=O)[C@H](CC(=O)O)NC(=O)[C@H](CO)NC(=O)[C@H](CO)NC(=O)[C@H](Cc1c[nH]cn1)NC(=O)[C@H](Cc1c[nH]cn1)NC(=O)[C@H](CC(C)C)NC(=O)[C@H](Cc1ccccc1)NC(=O)[C@H](CCC(=O)O)NC(=O)[C@H](C)NC(=O)[C@H](CC(C)C)NC(=O)[C@H](CCCNC(=N)N)NC(=O)[C@H](C)NC(=O)[C@@H](NC(=O)[C@H](CCC(N)=O)NC(=O)[C@H](C)NC(=O)[C@@H](NC(=O)[C@H](CO)NC(=O)[C@H](CC(C)C)NC(=O)[C@H](Cc1c[nH]cn1)NC(=O)[C@H](CO)NC(=O)[C@H](C)NC(=O)CC[C@H](NC(=O)CCCCCCCCCCCCCCCCC(=O)O)C(=O)O)[C@@H](C)O)[C@@H](C)O)C(=O)N1CCC[C@H]1C(=O)N[C@@H](CO)C(=O)N[C@@H](CO)C(=O)N[C@H](C(=O)N[C@@H](CC(=O)O)C(=O)N[C@H](C(=O)NCC(=O)N1CCC[C@H]1C(=O)N[C@@H](CC(=O)O)C(=O)N[C@H](C(=O)N1CCC[C@H]1C(N)=O)[C@@H](C)O)C(C)C)[C@@H](C)O [Compound 25, N^1-[(4S)-4-carboxy-4-(17-carboxyheptadecanoylamino)butanoyl]-[Ala1,Ser2,His3,Leu4,Ser5,Ala7,Gln8,Ala10,Glu14,His17,Asp21,Pro22,Pro27,Asp31,Pro34,Asp35,Pro37]-human amylin] ({C18 diacid-γGlu}-ASHLSTAQTARLAEFLHHSSDPFGAIPSSTDVGPDTP-NH2) | 152 | 24.15 | 0.34 |
